This is an account of results in PMC4621507, “Characterization of 2,4-Diamino-6-oxo-1,6-dihydropyrimidin-5-yl Ureido Based Inhibitors of Trypanosoma brucei FolD and Testing for Antiparasitic Activity” (Journal of Medicinal Chemistry, 2015).

Several values for one entry are separate records, joined by “and”; a condition that tells them apart may be missing. Identical values can stand only once.

The IC50 is the concentration at which inhibition is half-maximal. Broadly, the stoichiometry N is the number of molecules, sites or subunits per partner or assembly.

One series has as its system TbFolD. Description: FolD dehydrogenase enzyme inhibition assay. It is filed as biochemical, Trypanosoma brucei. The conditions noted are these: for FolD inhibition IC50 / FolD inhibition Ki: recombinant TbFolD, dehydrogenase activity; for FolD inhibition IC50: 35 μM mTHF, 1 mM NADP+, 27 °C, pH 7.3; for FolD inhibition Ki: data fitted to a competitive model; for increase of the inhibitory potency compared to that of compound 2: TbFolD, from Ki. The protocol: The dehydrogenase activity of FolD was measured spectrophotometrically, using a Beckman DU-640 spectrophotometer, following the formation of 5,10-CH=THF from 5,10-CH2-THF. 5,10-CH2-THF dehydrogenase assays were carried out in a 0.5 mL volume at 27 °C and contained 25 mM MOPS, pH 7.3, 30 mM 2-mercaptoethanol, 35 μM mTHF, and 1 mM NADP^+. The Km values of substrate and cofactor having been previously elucidated as approximately 35 and 70 μM. The reaction was initiated by the addition of NADP^+ and incubated for 5 min then stopped by the addition of an equal volume of 1 M HCl and the 5,10-CH=THF produced quantified at 350 nm, using an extinction coefficient of 24.9 mM^–1 cm^–1. The enzyme activity was expressed as μ moles 5,10-CH=THF produced per minute. Enzyme inhibition was measured using the dehydrogenase assay, with stocks of compounds dissolved in DMSO (10 mM). The concentration of compound in the first test was 0–50–100 μM. Data from inhibition assays were fitted to a competitive model by linear regression using Origin (OriginLab Corporation). […]
with 50 mM bicine, 250 mM NaCl, 0.5 mM DTT, 10 % glycerol pH 8.0. The typical yield of protein was approximately 7 mg/L of cell culture. The addition of 10% glycerol in all buffers was required to prevent loss of activity when the samples were flashyfrozen.
The dehydrogenase activity of FolD was measured spectrophotometrically, using a Beckman DUy 640 spectrophotometer, following either the formation of 5,10yCH=THF from 5,10yCH2yTHF (DH activity). 5,10yCH2yTHF dehydrogenase assays were carried out in a 0.5 mL volume at 27 °C and contained 25 mM MOPS, pH 7.3, 30 mM 2ymercaptoethanol 35 µM mTHF, 1 mM NADP+. The reaction was initiated by addition of NADP+ and incubated for 5 minutes then stopped by the addition of an equal volume of 1 M HCl and the 5,10yCH=THF produced quantified at 350 nm, using a extinction coefficient of 24.9 mM−1 cm−1. DH activity was expressed as µ moles 5,10y CH=THF produced per minute. Enzyme inhibition was measured using the dehydrogenase assay, with stocks of compounds dissolved in DMSO (10 mM). The concentration of compound in the first test was 0y50y100 µM. Data from inhibition assays were fitted to competitive model by linear […]
The bloodstreamyform T. brucei brucei strain 427 was grown in HMIy9 medium – 17.66 mg/mL IMDM (Gibco), 3.020 mg/mL sodium bicarbonate (SigmayAldrich), 0.136 mg/mL hypoxanthine (SigmayAldrich), 0.039 mg/mL thymidine (SigmayAldrich) and 0.028 mg/mL bathocuproine sulfonic acid (SigmayAldrich) y supplemented with 10% heatyinactivated fetal bovine serum (FBS) (BioWhittaker), 1.5 mM Lycysteine hydrochloride monohydrate (Merck), 0.2 mM βy mercaptoethanol (SigmayAldrich), 100 U/mL penicillin and 100 U/mL streptomycin (BioWhittaker) at 37 °C under a humidified 5% CO2 atmosphere. Cultures were grown in T25 or T75 vented cap culture flasks (Sarstedt) and subycultured every 2y3 days by 100 to 1000yfold dilution, respectively.
Parasites were counted directly using a Neubauer chamber (Marienfeld) and diluted appropriately in […]
In vitro growth inhibition assays

For series [1], the target named is Pseudomonas aeruginosa FolD. Further details: method as in PMID 22108435, PMID 23050773. The settings on record: competitive inhibitor; cited from earlier work.
The target in a further series is human FolD. Details: method as in PMID 22108435, PMID 23050773. The conditions noted are these: competitive inhibitor; cited from earlier work.
The next series concerns the target L. major FolD. Details: method as in PMID 22108435, PMID 23050773. The conditions noted are these: competitive inhibitor; cited from earlier work.
Series [2] deals with THP1 differentiated macrophages. Description: Cytotoxicity, colorimetric MTT assay. Type of series: cell-based. The settings on record: human THP1 differentiated macrophages, 72 h, read-out: THP1 in vitro growth inhibition IC50. As to the method: The cytotoxicity of the compounds under study was assessed by a colorimetric MTT assay.[26],[27] THP1 differentiated macrophages were seeded at a density of 10^5 cells/well in 96-well plates and allowed to adhere overnight. Cells were incubated with the compound concentration range for 72 h at 37 °C. At the end of the incubation period, 200 μL of 0.5 mg/mL MTT reagent (thiazolyl blue tetrazolium bromide, Sigma) solution was added to each well. The plates were further incubated for 4 h at 37 °C in the dark. The culture medium was subsequently discarded, and 200 μL of isopropanol was added to dissolve the dark-blue formazan crystals. Cell viability was quantified spectrophotometrically by measuring the absorbance of the formazan product at wavelength 570 nm and the background at 660 nm with a microplate reader (Synergy 2, Biotek, USA). The data are expressed as the percentages of viable cells compared to the survival of a control group (untreated cells). […]
additional 4 h and then the fluorescence read in a microplate reader (Sinergy 2, BioTek) using an […]
calculated by linear regression.
The cytotoxicity of the compounds under study was assessed by a colorimetric MTT assay. […]
added to dissolve the darkyblue formazan crystals. Cell viability was quantified
spectrophotometrically by measuring the absorbance of the formazan product at the wavelength of […]
On the technique in general: Formazan colour is commonly taken as a measure of viable cells.

In series [3] the target is Trypanosoma brucei N5,N10-methylenetetrahydrofolate dehydrogenase/cyclohydrolase (FolD) (Trypanosoma brucei (Lister 927 strain)). The series is described as follows: SEC; size exclusion chromatography (gel filtration) of recombinant TbFolD in solution; conditions not given in the main text. (In general: SEC sorts molecules by how far they enter the pores of the column.)
Series [4] can be described thus: Solubility in organic solvents (crystallization trials). It is filed as physicochemical. The conditions noted are these: room temperature, with the exception of DMSO. The source says:
We therefore tried to grow crystals from DMSO (in different conditions) and from mixtures of DMSO/CH3CN. Eventually, crystallization by slow evaporation (16 days) of a solution of 3 in reagent-grade DMSO (Sigma-Aldrich) at room temperature produced small plates suitable for the determination of the molecular connectivity. After testing several samples, a specimen (0.25 × 0.20 × 0.05 mm^3) grown at the liquor/air interface was selected for the crystallographic analysis. The specimen manifested a significant pleochroism (colorless to violet) under polarized light. It was mounted on the top of a glass capillary fiber in dense perfluorinated oil. The X-ray data collection was performed at room temperature on a 3-circle Bruker SMART APEX goniometer equipped with a CCD APEX-II detector, using graphite-monochromated Mo Kα radiation (λ = 0.71073 Å). A total of 26180 reflections (8144 unique) were recorded up to (sin ϑ/λ)MAX = 0.5017 Å^–1. A high exposure time (120 s/frame) was employed due to the small dimensions of the sample and its very low scattering power.

`Nc1nc(N)c(NC(=O)Nc2ccc(C(=O)N[C@@H](CCC(=O)O)C(=O)O)cc2)c(=O)[nH]1` [Compound 2, (S)-2-(4-(3-(2,4-Diamino-6-oxo-1,6-dihydropyrimidin-5-yl)ureido)benzamido)pentanedioic Acid]: in the series on TbFolD, the “FolD inhibition IC50” value was 2200 nM and 2200 ± 500 nM; the “FolD inhibition Ki” value is 1100 nM and 1100 ± 800 nM.
As for `Nc1nc2c(c(=O)[nH]1)N1C(=O)N(c3ccc(C(=O)NC(CCC(=O)O)C(=O)O)cc3)CC1CN2` (stereo not shown) [Compound 21, reference compound], in series [1], the “Ki Pseudomonas aeruginosa FolD” value is 30 nM. Besides, at human FolD, the “Ki human FolD” value is on record as 29 nM. The “Ki L. major FolD” value at L. major FolD was 105 nM. Also, in the series on TbFolD, the “FolD inhibition IC50” value amounted to 20000 ± 1200 nM; the “FolD inhibition Ki” value is 8500 nM and 8500 ± 500 nM.
For “(S)-2-(4-(3-(2,4-diamino-6-hydroxypyrimidin-5-yl)ureido)benzamido)hexanedioic Acid [Compound 16]”, in the series with TbFolD, the “increase of the inhibitory potency compared to that of compound 2” value was 2 fold; the “FolD inhibition IC50” value came out at 1000 ± 300 nM; the “FolD inhibition Ki” value was 480 nM and 480 ± 700 nM. For the same compound, in series [2], the IC50 turned out to be 90000 ± 16000 nM.
Regarding `C[C@H](NC(=O)c1ccc(NC(=O)Nc2c(N)nc(N)[nH]c2=O)cc1)C(=O)O` [Compound 17, (S)-2-(4-(3-(2,4-Diamino-6-hydroxypyrimidin-5-yl)ureido)benzamido)propanoic Acid], in the series on TbFolD, the “FolD inhibition IC50” value amounted to 6300 ± 800 nM and the “FolD inhibition Ki” value was determined as 3200 ± 300 nM.
Taken in the same sequence, the figures for `Nc1nc(N)c(NC(=O)Nc2ccc(C(=O)NCCCC(=O)O)cc2)c(=O)[nH]1` [Compound 20, 4-(4-(3-(2,4-Diamino-6-hydroxypyrimidin-5-yl)ureido)benzamido)butanoic Acid] were 213000 ± 18000 nM and 168000 ± 8500 nM.
Turning to `Nc1nc(N)c(NC(=O)Nc2ccc(C(=O)N[C@@H](Cc3ccccc3)C(=O)O)cc2)c(=O)[nH]1` [Compound 18, (S)-2-(4-(3-(2,4-Diamino-6-hydroxypyrimidin-5-yl)ureido)benzamido)-3-phenylpropanoic Acid], in the series with TbFolD, the “increase of the inhibitory potency compared to that of compound 2” value is 2 fold; the “FolD inhibition IC50” value came out at 1100 ± 250 nM; the “FolD inhibition Ki” value is 540 nM and 540 ± 80 nM.
Take “Trypanosoma brucei N5,N10-methylenetetrahydrofolate dehydrogenase/cyclohydrolase (FolD) (enzyme)”: the stoichiometry N in series [3] was 2.
For `Nc1nc(N)c(NC(=O)Nc2ccc(C(=O)N[C@@H](Cc3ccc(O)cc3)C(=O)O)cc2)c(=O)[nH]1` [Compound 19, (S)-2-(4-(3-(2,4-Diamino-6-hydroxypyrimidin-5-yl)ureido)benzamido)-3-(4-hydroxyphenyl)propanoic Acid], in the series on TbFolD, the “FolD inhibition IC50” value is 9300 ± 900 nM and the “FolD inhibition Ki” value came out at 7300 ± 700 nM.
Take `CCOC(=O)c1ccc(NC(=O)Nc2c(N)nc(N)[nH]c2=O)cc1` [Compound 3, Ethyl 4-(3-(2,4-diamino-6-oxo-1,6-dihydropyrimidin-5-yl)ureido)benzoate]: in series [4], the “solubility in most organic solvents” value was “poorly soluble”.
